Data on 31 molecules can be found in ChEMBL document CHEMBL3826897, “A facile and rapid access to resveratrol derivatives and their radioprotective activity” (Bioorg Med Chem Lett, 2016).

Data set [1] can be described thus: Radioprotective activity in rat thymocytes assessed as radio-modification factor pretreated at 100 uM followed by 2 Gy X-ray irradiation measured after 4 hrs by flow cytometric analysis relative to control. It counts as ADME, cell-based. The settings on record: thymocyte.
Data set [2] has as its system Thymocyte. As to the kind of experiment: Toxicity in rat thymocytes assessed as increase in cell death at 1000 uM measured after 4 hrs by flow cytometric analysis relative to control. It counts as cell-based. (In flow cytometry, cells or beads pass a laser one at a time.)
A short description of data set [3]: Radioprotective activity in rat thymocytes assessed as radio-modification factor pretreated at 1 uM followed by 2 Gy X-ray irradiation measured after 4 hrs by flow cytometric analysis relative to control. The class given is ADME, cell-based. As to conditions: thymocyte.
For data set [4], the system named is Thymocyte. Briefly: Toxicity in rat thymocytes assessed as increase in cell death at 1 uM measured after 4 hrs by flow cytometric analysis relative to control. It counts as cell-based.
Data set [5] concerns Thymocyte. As to the kind of experiment: Toxicity in rat thymocytes assessed as increase in cell death at 100 uM measured after 4 hrs by flow cytometric analysis relative to control. The class given is cell-based.
The nature of data set [6]: Radioprotective activity in rat thymocytes assessed as radio-modification factor pretreated at 10 uM followed by 2 Gy X-ray irradiation measured after 4 hrs by flow cytometric analysis relative to control. As to conditions: thymocyte. It counts as ADME, cell-based.
Data set [7] has as its system Thymocyte. As to the kind of experiment: Toxicity in rat thymocytes assessed as increase in cell death at 10 uM measured after 4 hrs by flow cytometric analysis relative to control. It counts as cell-based.
Data set [8] can be described thus: Radioprotective activity in rat thymocytes assessed as radio-modification factor pretreated at 1000 uM followed by 2 Gy X-ray irradiation measured after 4 hrs by flow cytometric analysis relative to control. The class given is ADME, cell-based. The settings on record: thymocyte.
The nature of data set [9]: Stability of the compound. It counts as physicochemical.

As to `Oc1ccc(/C=C/c2ccc(O)c(O)c2)cc1`, the Ratio in [1] is recorded as -0.3; in [2], over 10; in data set [3], 2.2; in [4], under 5; in data set [5], under 5; in data set [6] it was 1.3. The Ratio in data set [7] is listed as under 5.
On to `Oc1ccc(/C=C/c2ccc(O)cc2)cc1` [TRANS-4,4'-DIHYDROXYSTILBENE], for which the Ratio is recorded as 1.2 in data set [1]; under 5 in [2]; 0.6 in data set [3]; 1.1 in [8]; under 5 in data set [4]; under 5 in [5]. Moreover, the results for the Ratio in data set [6] and in [7] were 1.1 and under 5, respectively.
As for `COc1ccc(/C=C/c2cc(OC)cc(OC)c2)cc1` [TRISMETHOXYRESVERATROL], the Ratio in data set [1] is 0.31; in [2], 5; in data set [3] it was 0.82; in [8] it was -0.15; in data set [4], under 5; in data set [5], under 5. Further, the results for the Ratio in data set [6] and in data set [7] were 0.85 and under 5, respectively.
Take `Oc1cccc(/C=C/c2cc(O)cc(O)c2)c1`: the Ratio in data set [1] is 0.3; in [2], over 10; in data set [3], 0.9; in [4] it was under 5; in data set [5], under 5; in data set [6], 0.9. Besides, the Ratio in data set [7] is reported as under 5.
On to `Oc1ccc(/C=C/c2ccc(O)c(O)c2)cc1O`, for which the Stability entry in [9] is “Unstable”.
The same measure, in the same setting: with `COc1cc(/C=C/c2ccc(C)cc2)cc(OC)c1` the entry was “Unstable”.
As to `COc1ccc(/C=C/c2ccc(OC)c(OC)c2)cc1`, the Ratio in [1] is listed as 0.7; in data set [2], 5; in data set [3] it was 0.8; in data set [8], 0.5; in [4], under 5; in data set [5], under 5. Besides, the Ratio is 1 in data set [6] and under 5 in [7].
For `Oc1cc(O)cc(/C=C/c2ccccc2)c1` [PINOSYLVIN], the Stability result in [9] is on record as “Unstable”.
In the case of `Cc1ccc(/C=C/c2cc(O)cc(O)c2)cc1`, the Ratio is listed as 0.11 in data set [1]; under 5 in [2]; 0.94 in [3]; under 5 in data set [4]; over 10 in data set [5]; 1.06 in data set [6]. The Ratio in data set [7] is reported as under 5.
`CC(=O)Nc1ccc(/C=C/c2cc(O)cc(O)c2)cc1`: the Stability result in [9] is reported as “Unstable”.
For the molecule `COc1cccc(/C=C/c2cc(OC)cc(OC)c2)c1`, the Ratio in [1] was 1.1; in data set [2] it was under 5; in data set [3], 1.4; in [8] it was 0.2; in data set [4], under 5; in data set [5], under 5. Besides, the figures for the Ratio in data set [6] and in data set [7] were 1.2 and under 5, respectively.
Regarding `Oc1ccc(/C=C/c2cccc(O)c2)cc1` [(E)-3,4'-STILBENDIOL], the Ratio in data set [1] was 1.6; in [2] it was under 5; in data set [3], 1.4; in [8], 0.6; in [4], under 5; in [5], under 5. Moreover, the Ratio was 1.2 in [6] and under 5 in data set [7].
As to `COc1ccc(/C=C/c2ccc(OC)c(OC)c2)cc1OC`, the Ratio in [1] was 0.4; in [2] it was 5; in data set [3], 0.4; in data set [8], 0.3; in [4], under 5; in data set [5] it was 5. For the same molecule, the Ratio in data set [6] is on record as 1; in data set [7], under 5.
As to `COc1ccc(/C=C/c2cccc(OC)c2)cc1`, the Ratio in data set [1] is 1.1; in [2] it was under 5; in [3], 1; in data set [8], 1.5; in data set [4], under 5; in data set [5], under 5. The Ratio in [6] was 1.1; in data set [7], under 5.
For the molecule `Oc1ccc(/C=C/c2ccccc2O)cc1`, the Ratio is 0.5 in data set [1]; over 10 in data set [2]; 0.4 in data set [3]; 5 in [4]; 5 in data set [5]; 0.7 in [6]. Moreover, the Ratio in data set [7] was under 5.
In the case of `CC(=O)Oc1ccc(/C=C/c2cc(O)cc(O)c2)cc1`, the Ratio is on record as 0.91 in data set [1]; over 10 in data set [2]; 1.14 in data set [3]; under 5 in data set [4]; under 5 in data set [5]; 1.01 in data set [6]. For the same molecule, the Ratio in [7] is given as under 5.
As to `COc1cc(/C=C/c2ccc(F)cc2)cc(OC)c1`, the Ratio in data set [2] is given as over 10; in data set [3], 1.34; in data set [4], under 5; in [5], over 10; in data set [6], 1.26; in data set [7], under 5.
Consider `Nc1ccc(/C=C/c2cc(O)cc(O)c2)cc1`, for which, in data set [9], the Stability entry is “Unstable”.
As to `COc1cc(/C=C/c2ccccc2)cc(OC)c1` [3,5-O-DIMETHYLPINOSYLVIN], the Stability entry in data set [9] is “Unstable”.
As for `COc1ccc(/C=C/c2cc(OC)ccc2OC)cc1`, the Ratio in data set [1] is 0.9; in data set [2] it was under 5; in data set [3], 0.7; in data set [8], 0.7; in [4], under 5; in data set [5] it was under 5. Moreover, the Ratio in data set [6] was 1.2; in [7], under 5.
`COc1ccc(/C=C/c2ccccc2OC)cc1`: the Ratio is -0.2 in [1]; 5 in [2]; 1.3 in [3]; 0.2 in data set [8]; under 5 in data set [4]; under 5 in [5]. For the same molecule, the figures for the Ratio in data set [6] and in data set [7] were 1.3 and under 5, respectively.
Take `Oc1ccc(/C=C/c2cc(O)ccc2O)cc1`: the Ratio in data set [2] is over 10; in data set [3] it was 1.7; in [4] it was under 5; in data set [5] it was over 10; in data set [7], over 10.
Consider `COc1cc(/C=C/c2ccccc2OC)cc(OC)c1`, for which the Ratio in data set [1] was 0.3; in data set [2] it was 5; in data set [3] it was 0.8; in data set [8] it was 0.1; in data set [4], under 5; in [5], under 5. For the same molecule, the Ratio in data set [6] is 0.6; in data set [7], under 5.
As to `Oc1ccc(/C=C/c2cc(O)cc(O)c2)cc1` [RESVERATROL], the Ratio in data set [1] is listed as 0.59; in data set [2], under 5; in data set [3], 0.93; in [8], -0.34; in data set [4], under 5; in data set [5], under 5. Further, the values for the Ratio in [6] and in data set [7] were 1.06 and under 5, respectively.
Take `COc1ccc(/C=C/c2ccc(OC)cc2)cc1`: the Ratio in [1] is given as 1.3; in data set [2] it was under 5; in data set [3], 1.1; in data set [8] it was 1.5; in [4] it was under 5; in [5], under 5. In addition, the results for the Ratio in data set [6] and in [7] were 1 and under 5, respectively.
Turning to `COc1cc(/C=C/c2ccc(NC(C)=O)cc2)cc(OC)c1`, the Ratio in [1] is recorded as 0.99; in [2], under 5; in data set [3] it was 1.25; in data set [8] it was 1.05; in [4], under 5; in data set [5], under 5. In addition, the Ratio is 1.21 in data set [6] and under 5 in data set [7].
As to `COc1cc(/C=C/c2ccc(OC(C)=O)cc2)cc(OC)c1`, the Ratio in [1] was 0.52; in data set [2] it was 5; in data set [3] it was 0.99; in [8] it was 0.07; in [4], under 5; in [5], 5. The results for the Ratio in [6] and in data set [7] were 0.86 and 5, respectively.
Regarding `Oc1cc(O)cc(/C=C/c2ccccc2O)c1`, the Ratio is given as 0.4 in [1]; over 10 in data set [2]; 1.2 in [3]; under 5 in data set [4]; under 5 in data set [5]; 1.3 in [6]. In addition, the Ratio in data set [7] is reported as under 5.
As to `COc1cc(/C=C/c2ccc(Cl)cc2)cc(OC)c1`, in data set [9], the Stability result is reported as “Unstable”.
In the case of `Oc1cc(O)cc(/C=C/c2ccc(F)cc2)c1`, the Ratio is listed as -0.22 in [1]; over 10 in data set [2]; 0.89 in data set [3]; under 5 in [4]; under 5 in [5]; 0.81 in [6]. Moreover, the Ratio in data set [7] is given as under 5.
As for `Oc1cc(O)cc(/C=C/c2ccc(Cl)cc2)c1`, the Ratio is on record as over 10 in data set [2]; 0.56 in [3]; 5 in data set [4]; over 10 in data set [5]; 0.47 in data set [6]; 5 in data set [7].
